Several values for one entry are separate records, joined by “and”; a condition that tells them apart may be missing. Equal values may be shown once. Entries after “also recorded” stand apart in the source; their conditions may differ.

One assay deals with RAW264.7 cells. Kind of assay: NO production inhibition test (LPS, Griess Method). The class given is cell-based, mouse. The method, then: A 200 microliter each of the continuously-cultivated RAW264.7 cells (10^6 cells/mL) should be seeded into 48-well plate. After 24 hours, replace the culture medium with a serum-free culture medium. Then, add the LPS (final concentration: 10 microgram/mL) and samples (Examples 1 & 2), and then cultivate for 24 hours. Collect the supernatant (100 microliter) and determine the amount of NO by the Griess Method.
On the technique in general: Griess reagent forms a coloured azo dye with nitrite.

Assay [1] deals with adjuvant arthritis. Kind of assay: Adjuvant arthritis: X-ray determination of tarsus and interphalangeal articulation (radiographic index). Format: in vivo, rats. Conditions: 0.5 mg/kg. The text has this: Firstly, subcutaneously administer the adjuvant to the right tarsus of the rats under the following condition so that the arthritis is caused in the mice. On the second day that the arthritis is induced, orally administer the red ginger extract to the rats for four consecutive weeks by the following method, and regularly observe the tarsus edema of the rats and the anti-inflammatory effect of the test substance. 2. Firstly, obtain 28 mice (7-week-old, SD (CrjBgi:CD) IGS mice, male SPF) from ORIENT CO., LTD. Then, quarantine and naturalize the mice for more than 7 days. After observing the mice during the period of naturalization and quarantine, use the mice that are alive and which have no problems in the weight and general status. When the mice were grouped, the weight ranged from 279.3 to 328.7 g. When the inflammation was induced, the weight ranged from 283.7 to 333.9 g. When the autopsy was conducted, the weight ranged from 293.4 g to 440.8 g. 3. Administration The test substance was forcibly administered to the mice through a stomach sonde or syringe once a day for a period of 28 days after the inflammation was induced. As shown in the chart below, there are 4 groups, and each group has seven examples (i.e. 7 mice). The test substance was orally administered to each mouse for 28 days from the day after the inflammation was induced. During the period when the test substance was administered, the edema of the right tarsus of each mouse was X-rayed twice a week. From the day after the test was completed, the right and left tarsuses of each mouse were X-rayed twice a week, and the effect of the test substance on the bone was verified. The solution (1.0 mg/0.1 mL) was made from 1 mL of FREUND'S INCOMPLETE ADJUTANT (FIA) and 10 mg of killed bacteria (fungus body)—MYCOBACTERIUM BUTYRICUM (Lot Ni. 5129117, Difco). The FIA and the killed bacteria were sufficiently suspended, and then approx. […] of the solution was administered to the subcutaneous of the footpads of the right, hind leg of each mouse. On the 27th day after the administration was begun, the edema was taken out. The hind leg was affixed with the neutral buffered formalin fixative (10%), and the image of the tarsus articulation area, including the interphalangeal articulation, was taken by a soft X-ray. The tarsus articulation and the interphalangeal articulation were verified by the degrees between −(normal status) and 5+(most serious status). A radiographic index was obtained by the method as shown in Chart 2, below. Add up the figures to determine the severity of the articular destruction. [table]

Assay [2] concerns adjuvant arthritis. Kind of assay: Preventive effect on adjuvant arthritis: edema volume of the tarsus (footpad volume). The class given is in vivo, rats. An excerpt: Firstly, subcutaneously administer the adjuvant to the right tarsus of the rats under the following condition so that the arthritis is caused in the mice. On the second day that the arthritis is induced, orally administer the red ginger extract to the rats for four consecutive weeks by the following method, and regularly observe the tarsus edema of the rats and the anti-inflammatory effect of the test substance. Weigh at once the two-day doses of the red ginger extract as the test substance described in Example 1, and use the red ginger extract suspended with the 0.5% CMC-Na. At this time, prepare the high-dose test substance (10 mg/5 mL/kg). Then, […] the liquid to prepare the low-dose test substance (1 mg/5 mL/kg). Weigh the necessary amount of Indomethacin (Lot No. 122K0718, Sigma-Aldrich, Inc.) which is commercially available. Then prepare freshly the positive control substance with the injection solvent until it becomes 0.5 mg/5 mL/kg. Then, dispose of it after all the administrations have been completed. 2. Firstly, obtain 28 mice (7-week-old, SD (CrjBgi:CD) IGS mice, male SPF) from ORIENT CO., LTD. Then, quarantine and naturalize the mice for more than 7 days. After observing the mice during the period of naturalization and quarantine, use the mice that are alive and which have no problems in the weight and general status. When the mice were grouped, the weight ranged from 279.3 to 328.7 g. When the inflammation was induced, the weight ranged from 283.7 to 333.9 g. When the autopsy was conducted, the weight ranged from 293.4 g to 440.8 g. 3. Administration The test substance was forcibly administered to the mice through a stomach sonde or syringe once a day for a period of 28 days after the inflammation was induced. As shown in the chart below, there are 4 groups, and each group has seven examples (i.e. 7 mice). The test substance was orally administered to each mouse for 28 days from the day after the inflammation was induced. During the period when the test substance was administered, the edema of the right tarsus of each mouse was X-rayed twice a week. From the day after the test was completed, the right and left tarsuses of each mouse were X-rayed twice a week, and the effect of the test substance on the bone was verified. The solution (1.0 mg/0.1 mL) was made from 1 mL of FREUND'S INCOMPLETE ADJUTANT (FIA) and 10 mg of killed bacteria (fungus body)—MYCOBACTERIUM BUTYRICUM (Lot Ni. 5129117, Difco). The FIA and the killed bacteria were sufficiently suspended, and then approx. […] of the solution was administered to the subcutaneous of the footpads of the right, hind leg of each mouse. To verify the degree and the increase of the edema volume before and after the adjuvant was induced, the footpad volume of the right hind leg was measured by using Digital Pletysmometer, LE7500 (Panlab SL, Spain) twice each time immediately before the adjuvant was induced, and again on Days 3, 6, 10, 13, 17, 20, 24 and 27 after the adjuvant was induced. Each measured value was determined by Dunnet's Test using the Graphad Instat Program (Ver. 4.5, USA), and the significant difference test was conducted.

The mark [3] stands for this setting: 1 μg/mL, LPS 10 microgram/mL, 24 hours, average ± SD.
The mark [4] stands for this setting: right leg, individual animals, listed as Indomet hacin.
[5] abbreviates: right leg, individual animals, listed as indomethacin.

Consider `CCCCCCCCC[C@H](O)CC(=O)CCc1ccc(O)c(OC)c1` [Example 10-gingerol, 10-gingerol], for which the NO in supernatant with RAW264.7 cells (setting [3]) was 4.44 ± 0.27 µM; in the assay on RAW264.7 cells (3 μg/mL), 4.32 ± 0.16 µM; in the assay with RAW264.7 cells (10 μg/mL), 4.33 ± 0.50 µM; in the assay on RAW264.7 cells (30 μg/mL), 4.28 ± 0.72 µM; with RAW264.7 cells (100 μg/mL), 3.55 ± 0.08 µM. Moreover, the “Inhibition ratio (NO production)” value in the assay with RAW264.7 cells (100 μg/mL) is “(21.1) %”.

On to `CCCCC/C=C/C(=O)CCc1ccc(O)c(OC)c1` [Example 6-shogaol, 6-shogaol], for which the NO in supernatant with RAW264.7 cells (setting [3]) came out at 3.81 ± 0.29 µM; in the assay with RAW264.7 cells (3 μg/mL), 3.60 ± 0.29 µM; in the assay with RAW264.7 cells (10 μg/mL), 3.21 ± 0.31 µM; in the assay with RAW264.7 cells (30 μg/mL), 2.79 ± 0.09 µM; in the assay on RAW264.7 cells (100 μg/mL), 1.22 ± 0.04 µM. Besides, the “Inhibition ratio (NO production)” value in the assay with RAW264.7 cells (10 μg/mL) is “(13.6) %”; in the assay on RAW264.7 cells (30 μg/mL) it was “(29.8) %”; in the assay with RAW264.7 cells (100 μg/mL) it was “(90.7) %”. For the same compound, the “Effect on NO production among the ingredients” value with RAW264.7 cells (compared with the other components) was “comparatively strong effect”.

Regarding `COc1ccc2c(c1)c(CC(=O)O)c(C)n2C(=O)c1ccc(Cl)cc1` [Indomethacin], the “Degree of disorder compared to the vehicle group” value in the assay with adjuvant arthritis [1] was “remarkably suppressed”. In the assay on adjuvant arthritis [1] (right leg, individual animals), the “Result (X-ray determination)” value is on record as 2+ (Moderate(−): 2+; 2points). For the same compound, the “Interphal angeal articulation: Bone destruction” value in the assay on adjuvant arthritis [1] (setting [4]) was “− (Normal: −; 0 point); also recorded: + (Mild: +; 1 point)”; in the assay with adjuvant arthritis [1] (setting [5]), “+ (Mild: +; 1 point)”. For the same compound, the “Interphal angeal articulation: Periostitis” value in the assay on adjuvant arthritis [1] (setting [4]) is recorded as “+ (Mild: +; 1 point); also recorded: − (Normal: −; 0 point)”; in the assay on adjuvant arthritis [1] (setting [5]), “+ (Mild: +; 1 point)”. The “Interphal angeal articulation: Total” value in the assay on adjuvant arthritis [1] (setting [4]) was 1 points (5×) and 0 points and 2 points. In addition, the “Tarsus articulation: Bone destruction” value is listed as “− (Normal: −; 0 point); also recorded: + (Mild: +; 1 point)” in the assay on adjuvant arthritis [1] (setting [4]) and “+ (Mild: +; 1 point)” in the assay on adjuvant arthritis [1] (setting [5]). In the assay on adjuvant arthritis [1] (setting [4]), the “Tarsus articulation: Periostitis” value was 2+ (Moderate(−): 2+; 2points) (6×) and 3+ (Moderate(+): 3+; 3 ponts). For the same compound, the “Tarsus articulation: Total” value in the assay with adjuvant arthritis [1] (setting [4]) is 2 points (2×) and 3 points (4×) and 4 points. For the same compound, the “Edema volume of the tarsus, right tarsus” value in the assay on adjuvant arthritis [2] (0.5 mg/kg oral once a day, Day 0 (before induction)) was 1.81 ± 0.07 mL; in the assay with adjuvant arthritis [2] (0.5 mg/kg, Day 3), 3.35 ± 0.18 mL; in the assay with adjuvant arthritis [2] (0.5 mg/kg, Day 3, listed as indomethacin), 3.35 mL; in the assay with adjuvant arthritis [2] (0.5 mg/kg, Day 6), 3.69 ± 0.40 mL; in the assay on adjuvant arthritis [2] (0.5 mg/kg, Day 10), 3.69 ± 0.36 mL; in the assay with adjuvant arthritis [2] (0.5 mg/kg, Day 13), 3.40 ± 0.43 mL. The “Edema volume of the tarsus, right tarsus” value with adjuvant arthritis [2] (0.5 mg/kg, Day 17) is recorded as 3.11 ± 0.59 mL; in the assay on adjuvant arthritis [2] (0.5 mg/kg, Day 20), 3.18 ± 0.52 mL; with adjuvant arthritis [2] (0.5 mg/kg, Day 24), 3.19 ± 0.51 mL; with adjuvant arthritis [2] (0.5 mg/kg, Day 24, listed as indomethacin) it was 3.19 mL; with adjuvant arthritis [2] (0.5 mg/kg, Day 27) it was 2.89 ± 0.34 mL.

With `CCCCCCC[C@H](O)CC(=O)CCc1ccc(O)c(OC)c1` [Example 8-gingerol, 8-gingerol], the “Inhibition ratio (NO production)” value with RAW264.7 cells (1 μg/mL) is “(4.7) %”; in the assay with RAW264.7 cells (3 μg/mL) it was “(7.7) %”; in the assay with RAW264.7 cells (10 μg/mL) it was “(13.3) %”; in the assay on RAW264.7 cells (30 μg/mL), “(20.7) %”; in the assay on RAW264.7 cells (100 μg/mL), “(31.5) %”. For the same compound, the NO in supernatant in the assay with RAW264.7 cells (setting [3]) is 4.17 ± 0.27 µM; with RAW264.7 cells (3 μg/mL), 4.06 ± 0.24 µM; with RAW264.7 cells (10 μg/mL) it was 3.86 ± 0.32 µM; in the assay on RAW264.7 cells (30 μg/mL) it was 3.59 ± 0.21 µM; with RAW264.7 cells (100 μg/mL), 3.20 ± 0.17 µM.

In the case of `CCC[C@H](O)CC(=O)CCc1ccc(O)c(OC)c1` [Example 4-gingerol, 4-gingerol], the NO in supernatant came to 4.98 ± 0.22 µM in the assay with RAW264.7 cells (setting [3]); 5.10 ± 0.24 µM in the assay on RAW264.7 cells (3 μg/mL); 4.98 ± 0.22 µM in the assay on RAW264.7 cells (10 μg/mL); 5.03 ± 0.45 µM in the assay on RAW264.7 cells (30 μg/mL); 4.98 ± 0.26 µM in the assay on RAW264.7 cells (100 μg/mL).

In the case of `CCCCCCCCC/C=C/C(=O)CCc1ccc(O)c(OC)c1` [Example 10-shogaol, 10-shogaol], the “Inhibition ratio (NO production)” value in the assay on RAW264.7 cells (1 μg/mL) is reported as “(23.4) %”; with RAW264.7 cells (3 μg/mL) it was “(18.5) %”; with RAW264.7 cells (10 μg/mL), “(24.4) %”; in the assay on RAW264.7 cells (30 μg/mL), “(28.3) %”; in the assay with RAW264.7 cells (100 μg/mL), “(31.2) %”. Moreover, the NO in supernatant worked out at 2.78 ± 0.10 µM in the assay on RAW264.7 cells (setting [3]); 2.88 ± 0.11 µM with RAW264.7 cells (3 μg/mL); 2.76 ± 0.10 µM in the assay on RAW264.7 cells (10 μg/mL); 2.68 ± 0.70 µM in the assay with RAW264.7 cells (30 μg/mL); 2.62 ± 0.71 µM in the assay with RAW264.7 cells (100 μg/mL).
